The text below walks through data of the METLIN SMRT retention time set (Domingo-Almenara et al. 2019).

This data set in a line: gradient 5% acetonitrile 3 min, to 50% in 2 min, to 85% in 15 min, held 3 min, 100 µL/min. Conditions: column: Zorbax Extend-C18 2.1 x 50 mm; eluents: water / acetonitrile, 0.1% formic acid. The method, boiled down:
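A Zorbax Extend-C18 column (2.1 × 50 mm, 1.8 μm) run at 100 μL/min with water and acetonitrile, both containing 0.1% formic acid, separated mixtures of ~100 pure standards. The HPLC was coupled to a quadrupole time-of-flight mass spectrometer operated in positive and negative ionization mode, with dead and dwell volumes of 40 μL and 900 μL. Each retention time was taken from a computationally picked adduct peak that was then manually inspected.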
Consider `Cc1cccc(-c2noc(Cn3c(=O)n(-c4ccccc4F)c(=O)c4sccc43)n2)c1`, for which the RP-LC retention time stood at 1030 s.

As for `COc1ccc(-c2cc(N3CCC(NC(=O)c4ccccc4Br)C3)n[nH]2)cc1` (stereo not drawn), the RP-LC retention time is 688 s.

Consider `CCCN1C(=O)c2cc(C(=O)NCc3cccc(C)c3)nn2CC1(C)C(=O)NC1CCCC1` (stereo not drawn), for which the RP-LC retention time is 866 s.

The molecule `CCN(CC)S(=O)(=O)c1ccc2c(c1)cc(C(=O)NCCc1c[nH]c3ccccc13)n2C` showed an RP-LC retention time of 1010 s.

As to `COC(=O)c1cccc(NC(=O)NCCn2nnc3cc(S(=O)(=O)N(C)C)ccc32)c1`, the RP-LC retention time was 732 s.

Take `Cc1n[nH]c(C)c1S(=O)(=O)N1CCN(c2ccc3nnc(C4CC4)n3n2)CC1`: the RP-LC retention time turned out to be 604 s.

`O=S(=O)(c1cccc(F)c1)N1CCC(c2noc(-c3ccc(F)cc3)n2)CC1`: the RP-LC retention time is 1110 s.

Regarding `O=C(NCc1csc(C2CCN(C(=O)Cc3ccccc3Cl)CC2)n1)C1CCC1`, the RP-LC retention time stood at 753 s.

In turn, `Cc1ccc2c(=O)c(C(=O)N3CCCC3)cn(CC(=O)Nc3ccccc3C)c2n1` displayed an RP-LC retention time of 692 s.

`COC(=O)c1cccc(NC(=O)C2CCCN(c3nnc4ccc(Cl)cn34)C2)c1` (stereo not drawn): the RP-LC retention time was 735 s.

Take `c1ccc(CNc2cc(-n3ccnc3)ncn2)cc1`: the RP-LC retention time was found to be 610 s.

`Cc1ccc(NC(=O)C2CCN(S(=O)(=O)c3cn(C(C)C)cn3)CC2)c(Br)c1` had an RP-LC retention time of 838 s.

The molecule `Cc1ccc(-c2noc(Cc3nc(-c4ccc(F)cc4)cs3)n2)cc1` registered an RP-LC retention time of 1310 s.

`CCOC(=O)c1[nH]c(C(=O)O)c(OC(=O)CC)c1C` had an RP-LC retention time of 912 s.

Turning to `Cn1c(=O)c(N2CCC(NC(=O)Nc3ccc(Br)cc3)CC2)nc2ccccc21`, the RP-LC retention time worked out at 977 s.

`COC(=O)c1cccc(C(=O)Nc2cc(C)cc(C)c2)n1` had an RP-LC retention time of 931 s.

Molecule `O=C1NC2(CCN(C(=O)c3cccc(F)c3)CC2)Nc2c(Cl)cccc21` showed an RP-LC retention time of 756 s.

In turn, `O=C(c1cccn1Cc1noc(C2CC2)n1)N1CCc2ccccc21` came in with an RP-LC retention time of 982 s.

The molecule `COc1cccc2[nH]c(C(=O)NCCC(=O)NCCc3c[nH]c4ccccc34)cc12` had an RP-LC retention time of 662 s.

Turning to `COc1ccc(Cl)cc1NC(=O)Nc1c(-c2ccncc2)nc2ccccn12`, the RP-LC retention time was determined as 642 s.

`CCC(=O)N(C)CCc1noc(-c2ccc(C(=O)NC3CCCCCC3)cc2)n1` registered an RP-LC retention time of 794 s.

As for `CCOc1ccc(S(=O)(=O)N2CCC(C(=O)NCCc3ccc(OC)c(OC)c3)CC2)cc1C`, the RP-LC retention time was 901 s.

Molecule `CCOC(=O)c1c(C)[nH]c(CCC(=O)NCC2CCCO2)c1C` (stereo not drawn) had an RP-LC retention time of 686 s.

For `CCN1c2ccc(F)cc2C(=O)NC12CCN(C(=O)Cc1ccc(OC)cc1)CC2`, the RP-LC retention time amounted to 784 s.

Consider `Cc1cccc(S(=O)(=O)N2CCC3(C2)C(=O)N(C)c2ccccc23)c1` (stereo not drawn), for which the RP-LC retention time was 910 s.

The molecule `Clc1ccc(-c2cn3cccnc3n2)cc1` showed an RP-LC retention time of 662 s.

`Cn1c(=O)n(CCN2CCOCC2)c(=O)c2c1nc1n2CCCN1C1CCCCC1` returned an RP-LC retention time of 627 s.

Consider `COc1ccc(Cl)cc1NC(=O)C1CCN(C(=O)c2cccn2-c2cccnc2)CC1`, for which the RP-LC retention time is 784 s.

`CCOc1ccc(N2CCCCn3c2nc2c3c(=O)n(CCC(C)C)c(=O)n2C)cc1` displayed an RP-LC retention time of 1150 s.

Molecule `COc1ccc(-n2c(Cc3cccn3C)nnc2SCC(=O)NCC2CCCO2)cc1` (stereo not drawn) gave an RP-LC retention time of 655 s.

With `O=C(NCc1ccc(Br)cc1)c1ccc(-c2cncnc2)nc1`, the RP-LC retention time came out at 765 s.

`COc1ccc(-c2cc3nn(CC(=O)N4CCOCC4)c(=O)n3c(C)n2)cc1` displayed an RP-LC retention time of 717 s.

Molecule `Cc1c(Cl)cccc1-n1ccnc(NC(=O)Nc2ccc3c(c2)OCO3)c1=O` returned an RP-LC retention time of 995 s.
